Reference: the supplement of paper PMC8612539
Converted amounts (≈) assume the structure as drawn.

Tested on: Histophilus somni
Experiment: minimum inhibitory concentration (MIC)
Experimental: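 Broth microdilution MIC (Sensititre BOPO7F bovine plate, CLSI methods) of 19 antimicrobials against field isolates of P. multocida, M. haemolytica, H. somni (deep nasopharyngeal swabs) and E. coli, Enterococcus spp. (rectal swabs) from weaned dairy heifers. Incubation 16-24 h at 35 C. MIC is the lowest concentration preventing visible growth. Values with <= or > lie at the tested range limits. Trimethoprim-sulfamethoxazole is given as the trimethoprim component of a 1:19 mixture.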

CCCN1C[C@H](C)[C@@H](O)[C@](C)(O)[C@@H](CC)OC(=O)[C@H](C)[C@@H](O[C@H]2C[C@@](C)(OC)[C@@H](O)[C@H](C)O2)[C@H](C)[C@@H](O[C@@H]2O[C@H](C)C[C@H](N(C)C)[C@H]2O)[C@](C)(O)C[C@H]1C [Gamithromycin]
Conditions | minimum inhibitory concentration [µg/mL]
isolate (source animal id): 3 | ≤ 1
isolate (source animal id): 4 | ≤ 1
isolate (source animal id): 7 | ≤ 1
isolate (source animal id): 14 | ≤ 1
isolate (source animal id): 15 | ≤ 1
isolate (source animal id): 17 | ≤ 1
isolate (source animal id): 18 | ≤ 1
isolate (source animal id): 20 | ≤ 1
isolate (source animal id): 23 | ≤ 1
isolate (source animal id): 45 | ≤ 1
isolate (source animal id): 53 | ≤ 1
isolate (source animal id): 83 | ≤ 1
isolate (source animal id): 88 | ≤ 1
isolate (source animal id): 92 | ≤ 1
isolate (source animal id): 93 | ≤ 1
isolate (source animal id): 99 | ≤ 1
isolate (source animal id): 100 | ≤ 1
isolate (source animal id): 105 | ≤ 1
isolate (source animal id): 107 | ≤ 1
isolate (source animal id): 108 | ≤ 1
isolate (source animal id): 109 | ≤ 1
isolate (source animal id): 110 | ≤ 1
isolate (source animal id): 117 | ≤ 1
isolate (source animal id): 121 | ≤ 1
isolate (source animal id): 123 | ≤ 1
isolate (source animal id): 124 | ≤ 1
isolate (source animal id): 127 | ≤ 1
isolate (source animal id): 128 | ≤ 1
isolate (source animal id): 130 | 4 (≈ 5.15 µM)
isolate (source animal id): 132 | ≤ 1
isolate (source animal id): 135 | ≤ 1
isolate (source animal id): 140 | ≤ 1
isolate (source animal id): 141 | ≤ 1
isolate (source animal id): 142 | > 8
isolate (source animal id): 144 | ≤ 1
isolate (source animal id): 146 | 4 (≈ 5.15 µM)
isolate (source animal id): 147 | > 8
isolate (source animal id): 151 | ≤ 1
isolate (source animal id): 153 | ≤ 1
isolate (source animal id): 154 | > 8
isolate (source animal id): 156 | > 8
isolate (source animal id): 157 | ≤ 1
isolate (source animal id): 176 | ≤ 1
isolate (source animal id): 183 | ≤ 1
isolate (source animal id): 186 | ≤ 1
isolate (source animal id): 196 | ≤ 1
isolate (source animal id): 198 | ≤ 1
isolate (source animal id): 200 | ≤ 1
isolate (source animal id): 206 | ≤ 1
isolate (source animal id): 208 | ≤ 1
isolate (source animal id): 210 | ≤ 1
isolate (source animal id): 212 | ≤ 1
isolate (source animal id): 215 | ≤ 1
isolate (source animal id): 216 | ≤ 1
isolate (source animal id): 218 | ≤ 1
isolate (source animal id): 219 | ≤ 1
isolate (source animal id): 224 | ≤ 1
isolate (source animal id): 228 | ≤ 1
isolate (source animal id): 230 | ≤ 1
isolate (source animal id): 233 | ≤ 1
isolate (source animal id): 238 | ≤ 1
isolate (source animal id): 239 | ≤ 1
isolate (source animal id): 241 | ≤ 1
isolate (source animal id): 242 | ≤ 1
isolate (source animal id): 243 | ≤ 1
isolate (source animal id): 245 | ≤ 1
isolate (source animal id): 246 | ≤ 1
isolate (source animal id): 247 | ≤ 1
isolate (source animal id): 248 | ≤ 1
isolate (source animal id): 250 | ≤ 1
isolate (source animal id): 251 | ≤ 1
isolate (source animal id): 252 | ≤ 1
isolate (source animal id): 254 | ≤ 1
isolate (source animal id): 258 | ≤ 1
isolate (source animal id): 259 | ≤ 1
isolate (source animal id): 262 | ≤ 1
isolate (source animal id): 264 | ≤ 1
isolate (source animal id): 265 | ≤ 1
isolate (source animal id): 266 | ≤ 1
isolate (source animal id): 267 | ≤ 1
isolate (source animal id): 269 | ≤ 1
isolate (source animal id): 271 | ≤ 1
isolate (source animal id): 272 | ≤ 1
isolate (source animal id): 274 | ≤ 1
isolate (source animal id): 276 | ≤ 1
isolate (source animal id): 278 | ≤ 1
isolate (source animal id): 280 | ≤ 1
isolate (source animal id): 281 | ≤ 1
isolate (source animal id): 283 | ≤ 1
isolate (source animal id): 288 | ≤ 1
isolate (source animal id): 291 | ≤ 1
isolate (source animal id): 292 | ≤ 1
isolate (source animal id): 296 | ≤ 1
isolate (source animal id): 306 | ≤ 1
isolate (source animal id): 336 | ≤ 1
isolate (source animal id): 337 | ≤ 1
isolate (source animal id): 341 | ≤ 1

CN[C@@H]1[C@H](O)[C@H](NC)[C@H]2O[C@@]3(O)C(=O)C[C@@H](C)O[C@H]3O[C@@H]2[C@H]1O [Spectinomycin]
Conditions | minimum inhibitory concentration [µg/mL]
isolate (source animal id): 3 | > 64
isolate (source animal id): 4 | > 64
isolate (source animal id): 7 | ≤ 8
isolate (source animal id): 14 | 16 (≈ 48.1 µM)
isolate (source animal id): 15 | > 64
isolate (source animal id): 17 | ≤ 8
isolate (source animal id): 18 | > 64
isolate (source animal id): 20 | 16 (≈ 48.1 µM)
isolate (source animal id): 23 | 16 (≈ 48.1 µM)
isolate (source animal id): 45 | 16 (≈ 48.1 µM)
isolate (source animal id): 53 | ≤ 8
isolate (source animal id): 83 | ≤ 8
isolate (source animal id): 88 | > 64
isolate (source animal id): 92 | 32 (≈ 96.3 µM)
isolate (source animal id): 93 | 64 (≈ 193 µM)
isolate (source animal id): 99 | 16 (≈ 48.1 µM)
isolate (source animal id): 100 | 16 (≈ 48.1 µM)
isolate (source animal id): 105 | 16 (≈ 48.1 µM)
isolate (source animal id): 107 | 16 (≈ 48.1 µM)
isolate (source animal id): 108 | 16 (≈ 48.1 µM)
isolate (source animal id): 109 | 16 (≈ 48.1 µM)
isolate (source animal id): 110 | 32 (≈ 96.3 µM)
isolate (source animal id): 117 | > 64
isolate (source animal id): 121 | > 64
isolate (source animal id): 123 | > 64
isolate (source animal id): 124 | > 64
isolate (source animal id): 127 | > 64
isolate (source animal id): 128 | > 64
isolate (source animal id): 130 | > 64
isolate (source animal id): 132 | > 64
isolate (source animal id): 135 | ≤ 8
isolate (source animal id): 140 | > 64
isolate (source animal id): 141 | 16 (≈ 48.1 µM)
isolate (source animal id): 142 | 32 (≈ 96.3 µM)
isolate (source animal id): 144 | > 64
isolate (source animal id): 146 | 64 (≈ 193 µM)
isolate (source animal id): 147 | 16 (≈ 48.1 µM)
isolate (source animal id): 151 | > 64
isolate (source animal id): 153 | > 64
isolate (source animal id): 154 | 16 (≈ 48.1 µM)
isolate (source animal id): 156 | 16 (≈ 48.1 µM)
isolate (source animal id): 157 | > 64
isolate (source animal id): 176 | > 64
isolate (source animal id): 183 | > 64
isolate (source animal id): 186 | > 64
isolate (source animal id): 196 | > 64
isolate (source animal id): 198 | > 64
isolate (source animal id): 200 | > 64
isolate (source animal id): 206 | > 64
isolate (source animal id): 208 | > 64
isolate (source animal id): 210 | > 64
isolate (source animal id): 212 | > 64
isolate (source animal id): 215 | > 64
isolate (source animal id): 216 | > 64
isolate (source animal id): 218 | > 64
isolate (source animal id): 219 | > 64
isolate (source animal id): 224 | > 64
isolate (source animal id): 228 | > 64
isolate (source animal id): 230 | > 64
isolate (source animal id): 233 | 64 (≈ 193 µM)
isolate (source animal id): 238 | > 64
isolate (source animal id): 239 | > 64
isolate (source animal id): 241 | > 64
isolate (source animal id): 242 | > 64
isolate (source animal id): 243 | > 64
isolate (source animal id): 245 | ≤ 8
isolate (source animal id): 246 | > 64
isolate (source animal id): 247 | > 64
isolate (source animal id): 248 | ≤ 8
isolate (source animal id): 250 | > 64
isolate (source animal id): 251 | > 64
isolate (source animal id): 252 | 64 (≈ 193 µM)
isolate (source animal id): 254 | > 64
isolate (source animal id): 258 | > 64
isolate (source animal id): 259 | > 64
isolate (source animal id): 262 | > 64
isolate (source animal id): 264 | 32 (≈ 96.3 µM)
isolate (source animal id): 265 | 16 (≈ 48.1 µM)
isolate (source animal id): 266 | > 64
isolate (source animal id): 267 | > 64
isolate (source animal id): 269 | > 64
isolate (source animal id): 271 | > 64
isolate (source animal id): 272 | 16 (≈ 48.1 µM)
isolate (source animal id): 274 | > 64
isolate (source animal id): 276 | ≤ 8
isolate (source animal id): 278 | > 64
isolate (source animal id): 280 | 16 (≈ 48.1 µM)
isolate (source animal id): 281 | > 64
isolate (source animal id): 283 | > 64
isolate (source animal id): 288 | > 64
isolate (source animal id): 291 | > 64
isolate (source animal id): 292 | > 64
isolate (source animal id): 296 | > 64
isolate (source animal id): 306 | > 64
isolate (source animal id): 336 | > 64
isolate (source animal id): 337 | > 64
isolate (source animal id): 341 | > 64
